Test results taken from patent publication US9150554B2, “Fused ring inhibitors of hepatitis C” (Presidio Pharmaceuticals, Inc., priority 2009, dated 2015).

What follows are molecules tested on HCV 1b_Huh-Luc/Neo-ET cell line persistently expressing a bicistronic genotype 1b replicon in Huh 7 cells (assay: HCV replicon assay, luciferase enzyme activity readout). Conditions: Hepatitis C virus, 72 h incubation, average EC50 range, read-out: Inhibition of HCV genotype 1b.
Assay type: cell-based
Experimental: Biological activity of the compounds of the invention was determined using an HCV replicon assay. The HCV 1b_Huh-Luc/Neo-ET cell line persistently expressing a bicistronic genotype 1b replicon in Huh 7 cells was obtained from ReBLikon GMBH. This cell line was used to test compound inhibition using luciferase enzyme activity readout as a measurement of compound inhibition of replicon levels.
On Day 1 (the day after plating cells), each compound is added in triplicate to the cells. Plates are incubated for 72 h prior to determining luciferase levels. Enzyme activity was measured using a Bright-Glo Kit (cat. number E2620) manufactured by Promega Corporation. The following equation was used to generate a percent control value for each compound. % Control=(Compound Luciferase Level/Control Luciferase Level)*100
The EC50 value was determined using GraphPad Prism and the following equation: Y=Bottom asymptote+(Top asymptote−Bottom asymptote)/(1+10^((Log EC50−X)*HillSlope))
EC50 values of compounds are determined several times in the replicon assay to generate average EC50 values. […]

Row | SMILES | EC50 [nM]
1 | COC(=O)N[C@H](C(=O)N1CCC[C@H]1c1ncc(-c2ccc3c(c2)Cc2ccc(-c4cnc([C@@H]5CCCN5C(=O)[C@@H](NC(=O)OC)C5CCCC5)[nH]4)cc2O3)[nH]1)C1CCCC1 [Compound 32] | < 1
2 | COC(=O)N[C@H](C(=O)N1CCC[C@H]1c1ncc(-c2ccc3c(c2)Oc2ccc(-c4cnc([C@@H]5CCCN5C(=O)[C@@H](NC(=O)OC)C5CCCC5)[nH]4)cc2O3)[nH]1)C1CCCC1 [Compound 33] | < 1
3 | COC(=O)N[C@H](C(=O)N1CCC[C@H]1c1ncc(-c2ccc3c(c2)Oc2ccc(-c4cnc([C@@H]5CCCN5C(=O)[C@@H](NC(=O)OC)[C@@H](C)OC)[nH]4)cc2O3)[nH]1)[C@@H](C)OC [Compound 34] | < 1
4 | COC(=O)N[C@H](C(=O)N1CCC[C@H]1c1ncc(-c2ccc3c(c2)Oc2ccc(-c4cnc([C@@H]5CCCN5C(=O)[C@@H](NC(=O)OC)C5CCOCC5)[nH]4)cc2O3)[nH]1)C1CCOCC1 [Compound 35] | < 1
5 | COC(=O)N[C@H](C(=O)N1CSC[C@H]1c1ncc(-c2ccc3c(c2)Oc2ccc(-c4cnc([C@@H]5CSCN5C(=O)[C@@H](NC(=O)OC)C(C)C)[nH]4)cc2O3)[nH]1)C(C)C [Compound 36] | < 1
6 | COC(=O)N[C@@H](C(=O)N1CSC[C@H]1c1ncc(-c2ccc3c(c2)Oc2ccc(-c4cnc([C@@H]5CSCN5C(=O)[C@H](NC(=O)OC)c5ccccc5)[nH]4)cc2O3)[nH]1)c1ccccc1 [Compound 37] | < 1
7 | COC(=O)N[C@@H](C(=O)N[C@@H](C)c1ncc(-c2ccc3c(c2)Oc2ccc(-c4cnc([C@H](C)NC(=O)[C@H](NC(=O)OC)c5ccccc5)[nH]4)cc2O3)[nH]1)c1ccccc1 [Compound 38] | < 1
8 | COC(=O)N[C@H](C(=O)N[C@@H](C)c1ncc(-c2ccc3c(c2)Oc2ccc(-c4cnc([C@H](C)NC(=O)[C@@H](NC(=O)OC)C(C)C)[nH]4)cc2O3)[nH]1)C(C)C [Compound 39] | < 1
9 | COC(=O)N[C@H](C(=O)N1CCC[C@H]1c1ncc(-c2ccc3c(c2)Cc2cc(F)c(-c4cnc([C@@H]5CCCN5C(=O)[C@@H](NC(=O)OC)[C@@H](C)OC)[nH]4)cc2O3)[nH]1)[C@@H](C)OC [Compound 40] | < 1
10 | CC[C@H](C)[C@H](NC(=O)OC)C(=O)N1CCC[C@H]1c1ncc(-c2ccc3c(c2)Cc2cc(F)c(-c4cnc([C@@H]5CCCN5C(=O)[C@@H](NC(=O)OC)[C@@H](C)OC)[nH]4)cc2O3)[nH]1 [Compound 41] | < 1
11 | COC(=O)N[C@H](C(=O)N1CCC[C@H]1c1ncc(-c2ccc3c(c2)Cc2cc(F)c(-c4cnc([C@@H]5CCCN5C(=O)[C@@H](NC(=O)OC)[C@@H](C)OC)[nH]4)cc2O3)[nH]1)C1CCOCC1 [Compound 42] | < 1
12 | COC[C@H](NC(=O)OC)C(=O)N1CCC[C@H]1c1ncc(-c2ccc3c(c2)Cc2cc(F)c(-c4cnc([C@@H]5CCCN5C(=O)[C@@H](NC(=O)OC)[C@@H](C)OC)[nH]4)cc2O3)[nH]1 [Compound 43] | < 1
13 | COC(=O)N[C@H](C(=O)N1CCC[C@H]1c1ncc(-c2cc3c(cc2F)Cc2cc(-c4cnc([C@@H]5CCCN5C(=O)[C@@H](NC(=O)OC)C5CCOCC5)[nH]4)ccc2O3)[nH]1)C(C)C [Compound 44] | < 1
14 | COC[C@H](NC(=O)OC)C(=O)N1CCC[C@H]1c1ncc(-c2ccc3c(c2)Cc2cc(F)c(-c4cnc([C@@H]5CCCN5C(=O)[C@@H](NC(=O)OC)C(C)C)[nH]4)cc2O3)[nH]1 [Compound 45] | < 1
15 | CC[C@H](C)[C@H](NC(=O)OC)C(=O)N1CCC[C@H]1c1ncc(-c2ccc3c(c2)Oc2ccc(-c4cnc([C@@H]5CCCN5C(=O)[C@@H](NC(=O)OC)[C@@H](C)CC)[nH]4)cc2O3)[nH]1 [Compound 46] | < 1
16 | COC(=O)N[C@H](C(=O)N1CCCC[C@H]1c1ncc(-c2ccc3c(c2)Oc2ccc(-c4cnc([C@@H]5CCCCN5C(=O)[C@@H](NC(=O)OC)C(C)C)[nH]4)cc2O3)[nH]1)C(C)C [Compound 47] | < 1
17 | COC(=O)N[C@@H](C(=O)N1CCCC[C@H]1c1ncc(-c2ccc3c(c2)Oc2ccc(-c4cnc([C@@H]5CCCCN5C(=O)[C@H](NC(=O)OC)c5ccccc5)[nH]4)cc2O3)[nH]1)c1ccccc1 [Compound 48] | < 1
18 | COC(=O)N[C@H](C(=O)N1CCC[C@H]1c1ncc(-c2ccc3oc4cc(-c5cnc([C@@H]6CCCN6C(=O)[C@@H](NC(=O)OC)C(C)C)[nH]5)c(Cl)cc4c(=O)c3c2)[nH]1)C(C)C [Compound 49] | < 1

Row | SMILES | EC50 [nM]
19 | COC(=O)N[C@H](C(=O)N1CCC[C@H]1c1ncc(-c2ccc3oc4cc(-c5cnc([C@@H]6CCCN6C(=O)[C@@H](NC(=O)OC)[C@@H](C)OC)[nH]5)c(Cl)cc4c(=O)c3c2)[nH]1)[C@@H](C)OC [Compound 50] | < 1
20 | CC[C@H](C)[C@H](NC(=O)OC)C(=O)N1CCC[C@H]1c1ncc(-c2ccc3oc4cc(-c5cnc([C@@H]6CCCN6C(=O)[C@@H](NC(=O)OC)[C@@H](C)CC)[nH]5)c(Cl)cc4c(=O)c3c2)[nH]1 [Compound 51] | < 1
21 | COC(=O)N[C@H](C(=O)N1CCC[C@H]1c1ncc(-c2ccc3oc4cc(-c5cnc([C@@H]6CCCN6C(=O)[C@@H](NC(=O)OC)C6CCOCC6)[nH]5)c(Cl)cc4c(=O)c3c2)[nH]1)C1CCOCC1 [Compound 52] | < 1
22 | CC[C@H](C)[C@H](NC(=O)OC)C(=O)N1CCC[C@H]1c1ncc(-c2ccc3c(c2)Cc2cc(F)c(-c4cnc([C@@H]5CCCN5C(=O)[C@@H](NC(=O)OC)[C@@H](C)CC)[nH]4)cc2O3)[nH]1 [Compound 53] | < 1
23 | CC[C@H](C)[C@H](NC(=O)OC)C(=O)N1CCC[C@H]1c1ncc(-c2cc3c(cc2F)Cc2cc(-c4cnc([C@@H]5CCCN5C(=O)[C@@H](NC(=O)OC)[C@@H](C)OC)[nH]4)ccc2O3)[nH]1 [Compound 54] | < 1
24 | C=CC[C@H](NC(=O)OC)C(=O)N1CCC[C@H]1c1ncc(-c2ccc3c(c2)Oc2ccc(-c4cnc([C@@H]5CCCN5C(=O)[C@H](CC=C)NC(=O)OC)[nH]4)cc2O3)[nH]1 [Compound 55] | < 1
25 | C#CC[C@H](NC(=O)OC)C(=O)N1CCC[C@H]1c1ncc(-c2ccc3c(c2)Oc2ccc(-c4cnc([C@@H]5CCCN5C(=O)[C@H](CC#C)NC(=O)OC)[nH]4)cc2O3)[nH]1 [Compound 56] | < 1
26 | [2H]C([2H])([2H])C([2H])(C([2H])([2H])[2H])[C@]([2H])(NC(=O)OC)C(=O)N1CCC[C@H]1c1ncc(-c2ccc3c(c2)Oc2ccc(-c4cnc([C@@H]5CCCN5C(=O)[C@@]([2H])(NC(=O)OC)C([2H])(C([2H])([2H])[2H])C([2H])([2H])[2H])[nH]4)cc2O3)[nH]1 [Compound 57] | < 1
27 | COC(=O)N[C@@H](C(=O)N1CCC[C@H]1c1ncc(-c2ccc3oc4cc(-c5cnc([C@@H]6CCCN6C(=O)[C@H](NC(=O)OC)c6ccccc6)[nH]5)c(Cl)cc4c(=O)c3c2)[nH]1)c1ccccc1 [Compound 58] | < 1
28 | CC[C@H](C)[C@H](NC(=O)OC)C(=O)N1CCC[C@H]1c1ncc(-c2cc3c(cc2F)Cc2cc(-c4cnc([C@@H]5CCCN5C(=O)[C@@H](NC(=O)OC)C5CCOCC5)[nH]4)ccc2O3)[nH]1 [Compound 59] | < 1
29 | CC[C@H](C)[C@H](NC(=O)OC)C(=O)N1CCC[C@H]1c1ncc(-c2cc3c(cc2F)Cc2cc(-c4cnc([C@@H]5CCCN5C(=O)[C@H](COC)NC(=O)OC)[nH]4)ccc2O3)[nH]1 [Compound 60] | < 1
30 | COC(=O)N[C@H](C(=O)N1CCC[C@H]1c1ncc(-c2ccc3c(c2)Cc2cc(Cl)c(-c4cnc([C@@H]5CCCN5C(=O)[C@@H](NC(=O)OC)C(C)C)[nH]4)cc2O3)[nH]1)C(C)C [Compound 61] | < 1
31 | COC(=O)N[C@H](C(=O)N1CCC[C@H]1c1ncc(-c2ccc3c(c2)Cc2cc(Cl)c(-c4cnc([C@@H]5CCCN5C(=O)[C@@H](NC(=O)OC)[C@@H](C)OC)[nH]4)cc2O3)[nH]1)[C@@H](C)OC [Compound 62] | < 1
32 | CC[C@H](C)[C@H](NC(=O)OC)C(=O)N1CCC[C@H]1c1ncc(-c2ccc3c(c2)Cc2cc(Cl)c(-c4cnc([C@@H]5CCCN5C(=O)[C@@H](NC(=O)OC)[C@@H](C)CC)[nH]4)cc2O3)[nH]1 [Compound 63] | < 1
33 | COC(=O)N[C@H](C(=O)N1CCOC[C@H]1c1ncc(-c2ccc3c(c2)Oc2ccc(-c4cnc([C@@H]5COCCN5C(=O)[C@@H](NC(=O)OC)C(C)C)[nH]4)cc2O3)[nH]1)C(C)C [Compound 64] | < 1
34 | COC(=O)N[C@@H](C(=O)N1CCOC[C@H]1c1ncc(-c2ccc3c(c2)Oc2ccc(-c4cnc([C@@H]5COCCN5C(=O)[C@H](NC(=O)OC)c5ccccc5)[nH]4)cc2O3)[nH]1)c1ccccc1 [Compound 65] | < 1
35 | COC(=O)N[C@H](C(=O)N1CSC[C@H]1c1ncc(-c2ccc3c(c2)Oc2ccc(-c4cnc([C@@H]5CSCN5C(=O)[C@@H](NC(=O)OC)C5CCCC5)[nH]4)cc2O3)[nH]1)C1CCCC1 [Compound 66] | < 1
36 | CC[C@H](C)[C@H](NC(=O)OC)C(=O)N1CSC[C@H]1c1ncc(-c2ccc3c(c2)Oc2ccc(-c4cnc([C@@H]5CSCN5C(=O)[C@@H](NC(=O)OC)[C@@H](C)CC)[nH]4)cc2O3)[nH]1 [Compound 67] | < 1
